From US12029728B2, “Small molecules with anti-protozoan activity” (New Mexico Tech University Research Park Corporation, priority 2018, dated 2024)

Test system: PBMC cells
Experiment: MTT toxicity assay on PBMC / monocyte-derived macrophages
Type: cell-based, Human
Details: 5 (μM) MTF, 48 hours
Procedure: Human peripheral blood mononuclear cells (PBMC) were plated onto polylysine-coated glass slides in 24-well plates and allowed to differentiate towards monocyte-derived macrophages (MDMs). Non-adherent cells were removed 48-hours post plating. Adherent monocytes were left to further differentiate for another 48 hours to MDMs. Following the completion of the differentiation period, MDMs were treated with vehicle control (DMSO), […], or 10 μM of Compound 1, Compound 3, Compound 4, Compound 6, Compound 7, Compound 8, Compound 9, Compound 10, or Compound 11 for 48 hours.

With `CCCCCCCCCCCCCCCCOP(=O)([O-])OCC[N+](C)(C)C` [MTF, miltefosine] the “toxicity to PBMC cells (MTT)” value was “not toxic”.
